Data: PubChem BioAssay AID1259407 (Chemical Carcinogenesis Research Information System (CCRIS), 2018)
Active and inactive are the calls of the source. No rule for the calls is given here.

Test system: CCRIS mutagenicity, Ames/micronucleus/aberration tests
Test: CCRIS mutagenicity studies
[1] = Test System: AMES SALMONELLA TYPHIMURIUM, Strain/Indicator: TA98, Metabolic Activation: NONE, Method: STANDARD PLATE
[2] = Test System: AMES SALMONELLA TYPHIMURIUM, Strain/Indicator: TA98, Metabolic Activation: RAT, LIVER, S-9, AROCLOR 1254, Method: STANDARD PLATE
[3] = Test System: AMES SALMONELLA TYPHIMURIUM, Strain/Indicator: TA100, Metabolic Activation: NONE, Method: STANDARD PLATE
[4] = Test System: AMES SALMONELLA TYPHIMURIUM, Strain/Indicator: TA100, Metabolic Activation: RAT, LIVER, S-9, AROCLOR 1254, Method: STANDARD PLATE
[5] = Test System: AMES SALMONELLA TYPHIMURIUM, Strain/Indicator: TA1535, Metabolic Activation: NONE, Method: STANDARD PLATE
[6] = Test System: AMES SALMONELLA TYPHIMURIUM, Strain/Indicator: TA1535, Metabolic Activation: RAT, LIVER, S-9, AROCLOR 1254, Method: STANDARD PLATE
[7] = Test System: AMES SALMONELLA TYPHIMURIUM, Strain/Indicator: TA1537, Metabolic Activation: NONE, Method: STANDARD PLATE
[8] = Test System: AMES SALMONELLA TYPHIMURIUM, Strain/Indicator: TA1537, Metabolic Activation: RAT, LIVER, S-9, AROCLOR 1254, Method: STANDARD PLATE

Measured: mutagenic call

FC(Cl)(Cl)Cl
inactive: Test System: AMES SALMONELLA TYPHIMURIUM, Strain/Indicator: TA98, Metabolic Activation: HAMSTER, LIVER, S-9, AROCLOR 1254 (10%), Method: PREINCUBATION inactive; negative | Test System: AMES SALMONELLA TYPHIMURIUM, Strain/Indicator: TA98, Metabolic Activation: NONE, Method: GAS EXPOSURE inactive; negative | Test System: AMES SALMONELLA TYPHIMURIUM, Strain/Indicator: TA98, Metabolic Activation: NONE, Method: PREINCUBATION inactive; negative | Test System: AMES SALMONELLA TYPHIMURIUM, Strain/Indicator: TA98, Metabolic Activation: RAT LIVER S-9, PHENOBARBITAL AND BETA-NAPHTHOFLAVONE (40%), Method: GAS EXPOSURE inactive; negative | Test System: AMES SALMONELLA TYPHIMURIUM, Strain/Indicator: TA98, Metabolic Activation: RAT, LIVER, S-9, AROCLOR 1254 (10%), Method: PREINCUBATION inactive; negative | Test System: AMES SALMONELLA TYPHIMURIUM, Strain/Indicator: TA100, Metabolic Activation: HAMSTER, LIVER, S-9, AROCLOR 1254 (10%), Method: PREINCUBATION inactive; negative | Test System: AMES SALMONELLA TYPHIMURIUM, Strain/Indicator: TA100, Metabolic Activation: NONE, Method: GAS EXPOSURE inactive; negative | Test System: AMES SALMONELLA TYPHIMURIUM, Strain/Indicator: TA100, Metabolic Activation: NONE, Method: PREINCUBATION inactive; negative | Test System: AMES SALMONELLA TYPHIMURIUM, Strain/Indicator: TA100, Metabolic Activation: RAT LIVER S-9, PHENOBARBITAL AND BETA-NAPHTHOFLAVONE (40%), Method: GAS EXPOSURE inactive; negative | Test System: AMES SALMONELLA TYPHIMURIUM, Strain/Indicator: TA100, Metabolic Activation: RAT, LIVER, S-9, AROCLOR 1254 (10%), Method: PREINCUBATION inactive; negative | Test System: AMES SALMONELLA TYPHIMURIUM, Strain/Indicator: TA1535, Metabolic Activation: HAMSTER, LIVER, S-9, AROCLOR 1254 (10%), Method: PREINCUBATION inactive; negative | Test System: AMES SALMONELLA TYPHIMURIUM, Strain/Indicator: TA1535, Metabolic Activation: NONE, Method: GAS EXPOSURE inactive; negative | Test System: AMES SALMONELLA TYPHIMURIUM, Strain/Indicator: TA1535, Metabolic Activation: NONE, Method: PREINCUBATION inactive; negative | Test System: AMES SALMONELLA TYPHIMURIUM, Strain/Indicator: TA1535, Metabolic Activation: RAT LIVER S-9, PHENOBARBITAL AND BETA-NAPHTHOFLAVONE (40%), Method: GAS EXPOSURE inactive; negative | Test System: AMES SALMONELLA TYPHIMURIUM, Strain/Indicator: TA1535, Metabolic Activation: RAT, LIVER, S-9, AROCLOR 1254 (10%), Method: PREINCUBATION inactive; negative | Test System: AMES SALMONELLA TYPHIMURIUM, Strain/Indicator: TA1537, Metabolic Activation: HAMSTER, LIVER, S-9, AROCLOR 1254 (10%), Method: PREINCUBATION inactive; negative | Test System: AMES SALMONELLA TYPHIMURIUM, Strain/Indicator: TA1537, Metabolic Activation: NONE, Method: GAS EXPOSURE inactive; negative | Test System: AMES SALMONELLA TYPHIMURIUM, Strain/Indicator: TA1537, Metabolic Activation: NONE, Method: PREINCUBATION inactive; negative | Test System: AMES SALMONELLA TYPHIMURIUM, Strain/Indicator: TA1537, Metabolic Activation: RAT LIVER S-9, PHENOBARBITAL AND BETA-NAPHTHOFLAVONE (40%), Method: GAS EXPOSURE inactive; negative | Test System: AMES SALMONELLA TYPHIMURIUM, Strain/Indicator: TA1537, Metabolic Activation: RAT, LIVER, S-9, AROCLOR 1254 (10%), Method: PREINCUBATION inactive; negative | Test System: E.COLI, Strain/Indicator: WP2UVRA, Metabolic Activation: NONE, Method: GAS EXPOSURE inactive; negative | Test System: E.COLI, Strain/Indicator: WP2UVRA, Metabolic Activation: RAT LIVER S-9, PHENOBARBITAL AND BETA-NAPHTHOFLAVONE (40%), Method: GAS EXPOSURE inactive; negative | Test System: Mouse lymphoma, Strain/Indicator: L5178Y (tk+/tk-), Metabolic Activation: None, Method: Suspension/plate inactive; negative | Test System: Mouse lymphoma, Strain/Indicator: L5178Y (tk+/tk-), Metabolic Activation: Rat, Liver, S-9, Aroclor 1254, Method: Suspension/plate inactive; inconclusive (previous evaluation negative)

CC(C)CC(=O)OCc1cocc2c(C=O)ccc1-2
active: [1] active; positive | [2] active; positive | [3] active; positive | [4] active; positive
inactive: [5] inactive; negative | [6] inactive; negative | [7] inactive; negative | [8] inactive; negative

CC(O)CN(N=O)C(N)=O (centres undefined)
active: Test System: E. COLI B, Strain/Indicator: H/R30R, Metabolic Activation: NONE active; positive | Test System: E. COLI B, Strain/Indicator: HS30R, Metabolic Activation: NONE active; positive

CC(=O)Nc1cc2c(cc1OC(=O)c1ccccc1)-c1ccccc1C2
inactive: [2] inactive; negative

COCC(O)Cn1ccnc1[N+](=O)[O-] (centres undefined)
active: Test System: E. COLI, Strain/Indicator: WP2 UVRA, Metabolic Activation: NONE, Method: STANDARD PLATE active; positive

C[n+]1cccc(C(=O)[O-])c1
active: Test System: AMES SALMONELLA TYPHIMURIUM, Strain/Indicator: TA98, Metabolic Activation: RAT LIVER S-9, CHLOROPHENE, Method: STANDARD PLATE (COMPOUND HEATED AT 250 DEGREES CELSIUS FOR 20 MIN) active; positive
inactive: Test System: AMES SALMONELLA TYPHIMURIUM, Strain/Indicator: TA98, Metabolic Activation: HAMSTER, LIVER, S-9, AROCLOR 1254, Method: STANDARD PLATE inactive; negative | [1] inactive; negative | [2] inactive; negative | Test System: AMES SALMONELLA TYPHIMURIUM, Strain/Indicator: TA100, Metabolic Activation: HAMSTER, LIVER, S-9, AROCLOR 1254, Method: STANDARD PLATE inactive; negative | [3] inactive; negative | [4] inactive; negative | Test System: AMES SALMONELLA TYPHIMURIUM, Strain/Indicator: TA1535, Metabolic Activation: HAMSTER, LIVER, S-9, AROCLOR 1254, Method: STANDARD PLATE inactive; negative | [5] inactive; negative | [6] inactive; negative | Test System: AMES SALMONELLA TYPHIMURIUM, Strain/Indicator: TA1537, Metabolic Activation: HAMSTER, LIVER, S-9, AROCLOR 1254, Method: STANDARD PLATE inactive; negative | [7] inactive; negative | [8] inactive; negative | Test System: AMES SALMONELLA TYPHIMURIUM, Strain/Indicator: TA1538, Metabolic Activation: HAMSTER, LIVER, S-9, AROCLOR 1254, Method: STANDARD PLATE inactive; negative | Test System: AMES SALMONELLA TYPHIMURIUM, Strain/Indicator: TA1538, Metabolic Activation: NONE, Method: STANDARD PLATE inactive; negative | Test System: AMES SALMONELLA TYPHIMURIUM, Strain/Indicator: TA1538, Metabolic Activation: RAT, LIVER, S-9, AROCLOR 1254, Method: STANDARD PLATE inactive; negative | Test System: MOUSE LYMPHOMA, Strain/Indicator: L5178Y (TK+/TK-), Metabolic Activation: NONE, Method: SUSPENSION/PLATE inactive; negative. reevaluation of results: inconclusive | Test System: MOUSE LYMPHOMA, Strain/Indicator: L5178Y (TK+/TK-), Metabolic Activation: RAT, LIVER, S-9, AROCLOR 1254, Method: SUSPENSION/PLATE inactive; negative. reevaluation of results: inconclusive
